Measured values published in patent US6737383B1, “Herbicidal oxadiazolidines” (priority 1999, dated 2004).

What was measured:
[1] = tested on: corn; test: Test B pre/postemergence corn; type: in vivo, Zea mays
In short: (§1)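 Response is a visual 0-to-10 score relative to untreated plants, where 0 means no effect and 10 means complete control, taken twelve to sixteen days after application. Treatments went onto soil at planting and onto foliage of 1- to 4-leaf plants, using a surfactant-containing non-phytotoxic solvent.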

[2] = tested on: crabgrass; test: Test B pre/postemergence crabgrass; type: in vivo, Digitaria sanguinalis
In short: as §1

[3] = tested on: purple nutsedge; test: Test B pre/postemergence purple nutsedge; type: in vivo, Cyperus rotundus
In short: as §1

[4] = tested on: surinam grass; test: Test B pre/postemergence surinam grass; type: in vivo, Brachiaria decumbens
In short: as §1

[5] = tested on: soybean; test: Test B pre/postemergence soybean; type: in vivo, Glycine max
In short: as §1

[6] = tested on: blackgrass; test: Test B pre/postemergence blackgrass; type: in vivo, Alopecurus myosuroides
In short: as §1

[7] = tested on: wheat; test: Test B pre/postemergence wheat; type: in vivo, Triticum aestivum
In short: as §1

[8] = tested on: pigweed; test: Test B pre/postemergence pigweed; type: in vivo, Amaranthus retroflexus
In short: as §1

[9] = tested on: cocklebur; test: Test B pre/postemergence cocklebur; type: in vivo, Xanthium strumarium
In short: as §1

[10] = tested on: duck salad; test: Test B flood test duck salad; type: in vivo, Heteranthera limosa
In short: (§2)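 Plants were grown to the 2-leaf stage before treatment with test chemical, then held in a greenhouse for twelve to sixteen days. Injury was visually rated against untreated controls on a 0–10 scale, where 0 is no effect and 10 is complete control.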

[11] = tested on: wild oat; test: Test B pre/postemergence wild oat; type: in vivo, Avena fatua
In short: as §1

[12] = tested on: velvetleaf; test: Test B pre/postemergence velvetleaf; type: in vivo, Abutilon theophrasti
In short: as §1

[13] = tested on: giant foxtail; test: Test B pre/postemergence giant foxtail; type: in vivo, Setaria faberii
In short: as §1

[14] = tested on: rape; test: Test B pre/postemergence rape; type: in vivo, Brassica napus
In short: as §1

[15] = tested on: bamyardgrass; test: Test B flood test barnyardgrass; type: in vivo, Echinochloa crus-galli
In short: as §2

[16] = tested on: sugar beet; test: Test B pre/postemergence sugar beet; type: in vivo, Beta vulgaris
In short: as §1

[17] = tested on: smallflower flatsedge; test: Test B flood test smallflower flatsedge; type: in vivo, Cyperus difformis
In short: as §2

[18] = tested on: bedstraw; test: Test B pre/postemergence bedstraw; type: in vivo, Galium aparine; settings: Postemergence; for Bedstraw plant response rating: scale of 0 to 10, 0 is no effect, 10 is complete control
In short: as §1

[19] = tested on: rice; test: Test B flood test rice; type: in vivo, Oryza sativa
In short: as §2

[20] = tested on: morningglory; test: Test B pre/postemergence morningglory; type: in vivo, Ipomoea hederacea
In short: as §1

[21] = Postemergence, Rate 62 g/ha, scale of 0 to 10, 0 is no effect, 10 is complete control
[22] = Postemergence, Rate 125 g/ha, scale of 0 to 10 where 0 is no effect and 10 is complete control
[23] = Postemergence, Rate 250 g/ha, scale of 0 to 10, 0 is no effect, 10 is complete control
[24] = Postemergence, Rate 500 g/ha, scale of 0 to 10 where 0 is no effect and 10 is complete control
[25] = Preemergence, Rate 62 g/ha, scale 0 to 10 (0 no effect, 10 complete control)
[26] = Preemergence, Rate 125 g/ha, scale of 0 to 10 where 0 is no effect and 10 is complete control
[27] = Preemergence, Rate 500 g/ha, scale of 0 to 10 where 0 is no effect and 10 is complete control
[28] = Rate 62 g/ha, flood test species, Pre-emergence, visual evaluation after twelve to sixteen days
[29] = Rate 125 g/ha, under heading Pre-emergence, flood test species, visual evaluation after twelve to sixteen days
[30] = Rate 250 g/ha, Pre-emergence (flood test species), scale 0 to 10, 0 is no effect, 10 is complete control
[31] = Rate 500 g/ha, Pre-emergence section of Table B, 0 to 10 scale (0 no effect, 10 complete control)

CC(C)N(C(=O)n1oc(=O)n(CC(=O)N(C)C)c1=O)c1ccc(F)cc1 [Compound 586]
4: Rape plant response rating [14, 27] | Morningglory plant response rating [20, 27]
9: Plant response rating, Crabgrass [2, 24] | Crabgrass plant response rating [2, 25] | Crabgrass plant response rating [2, 26] | Blackgrass plant response rating (0 to 10 scale) ([6]; Preemergence, Rate 250 g/ha) | Plant response rating, Giant foxtail [13, 24] | Giant foxtail plant response rating [13, 25]
8: Crabgrass plant response rating [2, 23] | B. signalgrass plant response rating (0 to 10 scale, 0 is no effect, 10 is complete control) ([4]; Preemergence, Rate 250 g/ha) | Plant response rating, Blackgrass [6, 24] | Wheat plant response rating [7, 27] | Redroot pigweed plant response rating [8, 26] | Giant foxtail plant response rating [13, 23] | Sugarbeets plant response rating [16, 27]
10: Crabgrass plant response rating [2, 27] | B. signalgrass plant response rating [4, 27] | Blackgrass plant response rating [6, 27] | Redroot pigweed plant response rating [8, 27] | Wild oats plant response rating [11, 27] | Giant foxtail plant response rating [13, 26] | Giant foxtail plant response rating [13, 27] | Plant response rating, Morningglory [20, 22] | Morningglory plant response rating [20, 23]
3: Plant response rating, Corn [1, 24] | Plant response rating, Crabgrass [2, 22] | B. signalgrass plant response rating [4, 23] | Plant response rating, Soybean [5, 22] | Soybean plant response rating [5, 23] | Plant response rating, Soybean [5, 24] | Blackgrass plant response rating [6, 23] | Blackgrass plant response rating [6, 25] | Wild oats plant response rating [11, 26]
5: B. signalgrass plant response rating [4, 26]
2: Corn plant response rating [1, 23] | Crabgrass plant response rating [2, 21] | Nutsedge plant response rating [3, 27] | Plant response rating, Redroot pigweed [8, 24] | Giant foxtail plant response rating [13, 21] | Plant response rating, Giant foxtail [13, 22]
1: Plant response rating, Blackgrass [6, 22] | Plant response rating, Velvetleaf [12, 24]
7: Plant response rating, B. signalgrass [4, 24] | Blackgrass plant response rating [6, 26] | Velvetleaf plant response rating [12, 27]
6: Morningglory plant response rating [20, 21]
0: Corn plant response rating [1, 21] | Plant response rating, Corn [1, 22] | Corn plant response rating [1, 25] | Corn plant response rating [1, 26] | Corn plant response rating (0 to 10 scale) ([1]; Preemergence, Rate 250 g/ha) | Corn plant response rating [1, 27] | Nutsedge plant response rating [3, 21] | Plant response rating, Nutsedge [3, 22] | Nutsedge plant response rating [3, 23] | Plant response rating, Nutsedge [3, 24] | Nutsedge plant response rating [3, 25] | Nutsedge plant response rating [3, 26] | B. signalgrass plant response rating [4, 21] | Plant response rating, B. signalgrass [4, 22] | B. signalgrass plant response rating [4, 25] | Soybean plant response rating [5, 25] | Soybean plant response rating [5, 26] | Soybean plant response rating [5, 27] | Blackgrass plant response rating [6, 21] | Plant response rating, Wheat [7, 22] | Wheat plant response rating [7, 23] | Plant response rating, Wheat [7, 24] | Wheat plant response rating [7, 25] | Wheat plant response rating [7, 26] | Plant response rating, Redroot pigweed [8, 22] | Redroot pigweed plant response rating [8, 23] | Redroot pigweed plant response rating [8, 25] | Cocklebur plant response rating [9, 21] | Plant response rating, Cocklebur [9, 22] | Cocklebur plant response rating [9, 23] | Plant response rating, Cocklebur [9, 24] | Cocklebur plant response rating [9, 25] | Cocklebur plant response rating [9, 26] | Cocklebur plant response rating (0 to 10 scale) ([9]; Preemergence, Rate 250 g/ha) | Cocklebur plant response rating [9, 27] | Plant response rating, Ducksalad (0 to 10 scale, 0 is no effect, 10 is complete control) [10, 28] | Ducksalad plant response rating (0 to 10 scale, 0 is no effect, 10 is complete control) [10, 29] | Ducksalad plant response rating [10, 30] | Ducksalad plant response rating [10, 31] | Plant response rating, Wild oats [11, 22] | Wild oats plant response rating [11, 23] | Plant response rating, Wild oats [11, 24] | Wild oats plant response rating [11, 25] | Plant response rating, Velvetleaf [12, 22] | Velvetleaf plant response rating [12, 23] | Velvetleaf plant response rating [12, 25] | Velvetleaf plant response rating [12, 26] | Rape plant response rating [14, 21] | Plant response rating, Rape [14, 22] | Rape plant response rating [14, 23] | Plant response rating, Rape [14, 24] | Rape plant response rating [14, 25] | Rape plant response rating [14, 26] | Plant response rating, Barnyardgrass (0 to 10 scale, 0 is no effect, 10 is complete control) [15, 28] | Barnyardgrass plant response rating (0 to 10 scale, 0 is no effect, 10 is complete control) [15, 29] | Barnyardgrass plant response rating [15, 30] | Barnyardgrass plant response rating [15, 31] | Plant response rating, Sugarbeets [16, 22] | Sugarbeets plant response rating [16, 23] | Plant response rating, Sugarbeets [16, 24] | Sugarbeets plant response rating [16, 25] | Sugarbeets plant response rating [16, 26] | Plant response rating, S. Flatsedge (0 to 10 scale, 0 is no effect, 10 is complete control) [17, 28] | S. Flatsedge plant response rating (0 to 10 scale, 0 is no effect, 10 is complete control) [17, 29] | S. Flatsedge plant response rating [17, 30] | S. Flatsedge plant response rating [17, 31] | Bedstraw plant response rating ([18]; Rate 62 g/ha) | Plant response rating, Bedstraw ([18]; Rate 125 g/ha, scale of 0 to 10 where 0 is no effect and 10 is complete control) | Bedstraw plant response rating ([18]; Rate 250 g/ha) | Plant response rating, Rice (0 to 10 scale, 0 is no effect, 10 is complete control) [19, 28] | Rice plant response rating (0 to 10 scale, 0 is no effect, 10 is complete control) [19, 29] | Rice plant response rating [19, 30] | Rice plant response rating [19, 31] | Morningglory plant response rating [20, 25] | Morningglory plant response rating [20, 26]
